According to patent US20250034201A1, “PRODRUGS OF GANAXOLONE” (priority 2022, published 2025):
In brackets after ≈: the same amount, converted by molar mass. Read-outs that look alike come from different tables or passages of the source.

Key:
[1] = Rat liver microsomal stability; type: in vitro ADME; conditions: for half-life / microsomal CLint: rat liver microsomes 0.5 mg/mL, with NADPH; for half-life / microsomal CLint / Rat Liver Microsomal Stability no NADPH, % remain 1 h: compound 0.5 μM; for half-life: 37° C., read-out: Rat Liver Microsomal Stability t1/2; for microsomal CLint: read-out: Rat Liver Microsomal Stability CLint (uL/min/mg liver); for Comments: production of GNX (ganaxolone) in rat liver microsomes / Rat Liver Microsomal Stability no NADPH, % remain 1 h: rat liver microsomes
Method: (§1) For several compounds only human liver microsomal stability was tested. […] The microsomal assays were carried out with and without the addition of NADPH at a final concentration of 1 mM. For negative control samples, NADPH reagent was not added. […] Note that compounds undergo only Phase I metabolism in liver microsomes.
(§2) CLint=the intrinsic hepatic clearance (uL/min/mg), where CLint is equal to 0.693/(t1/2×Cmp)

[2] = Pharmacokinetic study with Compound 218 (IV 5 mg/kg, PO 25 mg/kg); type: in vivo; conditions: dog, plasma, fasted male beagle dogs; for AUC(0-t): read-out: Compound 218 PK AUClast; for MRT inf: read-out: Compound 218 PK MRTInf; for half-life: read-out: Compound 218 PK t1/2 (converted); for Vd: male, beagle, 5 mg/kg
Method: […]; n=3) and oral (PO) administration (25 mg/kg; n=3) in fasted male beagle dogs.

[3] = Measured solubility in buffer, LC-MS/MS; type: physicochemical; conditions: aqueous buffer, thermodynamic from solid
Method: […] The mixture was vortexed and a magnetic stirring bar was subsequently added to the vial. The vial was placed on a magnetic stirrer with constant stirring for 16-24 hours at room temperature. The pH of the top layer solution was measured. Subsequently, 200 μL of the top layer solution was placed in a 1.5 mL microcentrifuge tube and centrifuged at 18,000 g for 10 min at room temperature. A 10 μL aliquot of supernatant was added to 990 μL of methanol:water (1/:1, v/v) and vortexed. Then, one volume of acetonitrile containing internal standard was added to one volume of the above 100-fold diluted solution and the resulting solution was vortexed and placed in 96-well plate for LC-MS/MS analysis. […] LC-MS-MS analysis was performed utilizing multiple reaction monitoring for detection of characteristic ions for each test compound, additional related analytes and internal standard.

[4] = in vitro; conditions: for Human plasma t90 / Rat plasma t90: 2 μg/mL, 37° C.; for Observations: stability / GNX production in human plasma / half-life / Observations: stability / GNX production in rat plasma: plasma
Method: The plasma stability of exemplary compounds was tested using rat, mice, dog, and human plasma, according to the following protocol. For each test compound, samples at a final concentration of 2 μg/mL were prepared in blank plasma of selected species. All samples were incubated at 37° C. on a 150-RPM orbital shaker, and an aliquot was removed at pre-determined time points (0, 15, 30, 60, and 120 minutes). Samples were precipitated with three volumes of acetonitrile containing propranolol as internal standard, and centrifuged for 10 min at 2000 g before LC/MS/MS analysis of the supernatant solutions.

[5] = Dog plasma stability; type: in vitro ADME; conditions: dog plasma; for Dog plasma t90 / half-life: 2 μg/mL, 37° C.; for half-life: read-out: Dog plasma Half life (t1/2)
[6] = Dog liver microsomal stability; type: in vitro ADME; conditions: for microsomal CLint / half-life: dog liver microsomes 0.5 mg/mL, compound 0.5 μM; for microsomal CLint: read-out: Dog Liver Microsomal Stability CLint (uL/min/mg liver); for half-life: read-out: Dog Liver Microsomal Stability t1/2; for Dog Liver Microsomal Stability no NADPH, % remain 1 h: dog liver microsomes
Method: as §1, §2
Certain compounds were also tested in mice and dog liver microsome assays according to the protocol outlined above. […].

[7] = in vitro; type: in vitro ADME, human; conditions: compound 0.5 μM; for half-life / microsomal CLint: human liver microsomes 0.5 mg/mL, with NADPH; for half-life: 37° C., read-out: Human Liver Microsomal Stability t1/2; for microsomal CLint: read-out: Human Liver Microsomal Stability CLint (uL/min/mg liver) (converted); for Human Liver Microsomal Stability no NADPH, % remain 1 h: human liver microsomes
Method: as §1

[8] = Stability in simulated intestinal fluid (SIF); type: in vitro ADME; conditions: SIF with pancreatin pH 6.8, 37° C.; for half-life: simulated gi fluid, 2 μg/mL, read-out: SIF t1/2
Method: (§3) The stability of exemplary compounds in simulated gastric fluid (SGF) and simulated intestinal fluid (SIF) was tested according to the following protocol.

[9] = Stability in simulated gastric fluid (SGF); type: in vitro ADME; conditions: SGF with pepsin pH 1.2, 37° C.; for half-life: simulated gi fluid, 2 μg/mL, read-out: SGF t1/2
Method: as §3

[10] = analyte Compound 218, IV 5 mg/kg Compound 218, mean
[11] = analyte Compound 218, oral 25 mg/kg Compound 218, mean
[12] = pH 7.4, 50 mM phosphate buffer, 16-24 hours, room temperature, read-out: Solubility pH 7.4
[13] = buffer, pH 2.0, room temperature, read-out: Solubility pH 2.0

Compound: CC(=O)[C@H]1CC[C@H]2[C@@H]3CC[C@H]4C[C@](C)(OC(=O)COC(=O)C(C)(C)N)CC[C@]4(C)[C@H]3CC[C@]12C [Compound 218]
- Comments: production of GNX (ganaxolone) in rat liver microsomes [1]: In rat no GNX produced;
- half-life [1]: 0.94 h
- microsomal CLint [1]: 26 µL/min/mg
- Rat Liver Microsomal Stability no NADPH, % remain 1 h [1]: 83%
- AUC(0-inf) ([2]; analyte Compound 218, IV 5 mg/kg Compound 218, mean, read-out: Compound 218 PK AUCinf): 2200 ng·h/mL
- AUC(0-t) [2, 10]: 2130 ng·h/mL
- C0 ([2]; analyte Compound 218, IV 5 mg/kg Compound 218, mean, read-out: Compound 218 PK C0): 2750 ng/mL
- clearance ([2]; analyte Compound 218, IV 5 mg/kg Compound 218, mean, read-out: Compound 218 PK CL): 37.9 mL/min/kg
- MRT inf [2, 10]: 5.03 h
- half-life [2, 10]: 17.7 h
- AUC(0-inf) ([2]; analyte Compound 218, oral 25 mg/kg Compound 218, mean, read-out: Compound 218 PK AUCInf): 415 ng·h/mL
- AUC(0-t) [2, 11]: 359 ng·h/mL
- Cmax ([2]; analyte Compound 218, oral 25 mg/kg Compound 218, mean, read-out: Compound 218 PK Cmax): 89.8 ng/mL
- MRT inf [2, 11]: 6.38 h
- Tmax ([2]; analyte Compound 218, oral 25 mg/kg Compound 218, mean, read-out: Compound 218 PK Tmax): 1.17 h
- half-life [2, 11]: 6.13 h
- bioavailability ([2]; analyte Compound 218, oral 25 mg/kg vs IV 5 mg/kg Compound 218, mean, read-out: Compound 218 PK F (%)): 3.76%
- Vd ([2]; intravenous, Compound 218 administered, read-out: volume of distribution (Vd) (dose/Co)): 1.82 L/kg
- Vd ([2]; iv, analyte Compound 218, IV 5 mg/kg Compound 218, mean, read-out: Compound 218 PK Vss): 11.4 L/kg
- Vd ([2]; iv, analyte Compound 218, IV 5 mg/kg Compound 218, mean, read-out: Compound 218 PK Vz): 57.5 L/kg
- solubility [3, 12]: 152 µg/mL (≈ 320 µM)
- solubility [3, 13]: 16900 µg/mL (≈ 35500 µM)
- Human plasma t90 [4]: 8.6 min
- Observations: stability / GNX production in human plasma ([4]; human): No GNX produced
- half-life ([4]; human): 0.948 h
- Rat plasma t90 [4]: 8.5 min
- Observations: stability / GNX production in rat plasma ([4]; rat): GNX produced in rat
- half-life ([4]; rat): 0.938 h
- Observations: stability / GNX production in dog plasma [5]: No GNX produced
- Dog plasma t90 [5]: 783 min
- half-life [5]: 86.6 h
- microsomal CLint [6]: 69 µL/min/mg
- half-life [6]: 0.335 h
- Dog Liver Microsomal Stability no NADPH, % remain 1 h [6]: 44.4%
- half-life [7]: 0.24 h
- microsomal CLint [7]: 95.3 µL/min/mg
- Human Liver Microsomal Stability no NADPH, % remain 1 h [7]: 10.0%
- SIF (% remain, 60 min) [8]: 95%
- half-life [8]: 22.7 h
- SGF (% remain, 60 min) [9]: 97%
- half-life [9]: 35 h

Compound: CC(=O)OCCN(CCOC(C)=O)CC(=O)OC(C)(C)C(=O)OCC(=O)O[C@]1(C)CC[C@@]2(C)[C@@H](CC[C@@H]3[C@@H]2CC[C@]2(C)[C@@H](C(C)=O)CC[C@@H]32)C1 [Compound 229]
- solubility [3, 12]: 11 µg/mL (≈ 15.6 µM)
- solubility [3, 13]: 22 µg/mL (≈ 31.2 µM)
- microsomal CLint [6]: 224 µL/min/mg
- half-life [6]: 0.103 h
- Dog Liver Microsomal Stability no NADPH, % remain 1 h [6]: 1%
- half-life [7]: 0.102 h
- microsomal CLint [7]: 227 µL/min/mg
- Human Liver Microsomal Stability no NADPH, % remain 1 h [7]: 1%

Compound: CC(=O)[C@H]1CC[C@H]2[C@@H]3CC[C@H]4C[C@](C)(O)CC[C@]4(C)[C@H]3CC[C@]12C [ganaxolone, Ganaxolone]
- half-life [1]: 0.2 h
- microsomal CLint [1]: 116 µL/min/mg
- Rat Liver Microsomal Stability no NADPH, % remain 1 h [1]: 98.0%
- solubility [3, 12]: 4 µg/mL (≈ 12 µM)
- solubility [3, 13]: 2 µg/mL (≈ 6.01 µM)
- Human plasma t90 [4]: 211.0 min
- half-life ([4]; human): 23.4 h
- Rat plasma t90 [4]: 94.2 min
- half-life ([4]; rat): 10.4 h
- Dog plasma t90 [5]: 564 min
- half-life [5]: 62.4 h
- microsomal CLint [6]: 27.8 µL/min/mg
- half-life [6]: 0.83 h
- Dog Liver Microsomal Stability no NADPH, % remain 1 h [6]: 43.6%
- half-life [7]: 0.21 h
- microsomal CLint [7]: 110 µL/min/mg
- Human Liver Microsomal Stability no NADPH, % remain 1 h [7]: 99.0%
- SIF (% remain, 60 min) [8]: 94.6%
- SGF (% remain, 60 min) [9]: 95.6%

Compound: CC(=O)[C@H]1CC[C@H]2[C@@H]3CC[C@H]4C[C@](C)(OC(=O)COC(=O)CN5CCOCC5)CC[C@]4(C)[C@H]3CC[C@]12C [Compound 200]
- half-life [1]: 0.202 h
- microsomal CLint [1]: 115 µL/min/mg
- Rat Liver Microsomal Stability no NADPH, % remain 1 h [1]: 7.5%
- solubility [3, 12]: 29 µg/mL (≈ 56 µM)
- solubility [3, 13]: 11800 µg/mL (≈ 22800 µM)
- Human plasma t90 [4]: 2.19 min
- half-life ([4]; human): 0.243 h
- Rat plasma t90 [4]: 1.4 min
- Observations: stability / GNX production in rat plasma ([4]; rat): In rat, compound converted
- half-life ([4]; rat): 0.158 h
- half-life [7]: 0.1 h
- microsomal CLint [7]: 229 µL/min/mg
- Human Liver Microsomal Stability no NADPH, % remain 1 h [7]: 1%
- SIF (% remain, 60 min) [8]: 31%
- SGF (% remain, 60 min) [9]: 99.0%

Compound: CC(=O)[C@H]1CC[C@H]2[C@@H]3CC[C@H]4C[C@](C)(OC(=O)CNC(C)(C)C(=O)O)CC[C@]4(C)[C@H]3CC[C@]12C [Compound 120]
- Comments: production of GNX (ganaxolone) in rat liver microsomes [1]: In rat no GNX produced;
- half-life [1]: 0.6 h
- microsomal CLint [1]: 38 µL/min/mg
- Rat Liver Microsomal Stability no NADPH, % remain 1 h [1]: 72%
- solubility [3, 12]: 35 µg/mL (≈ 73.6 µM)
- solubility [3, 13]: 39 µg/mL (≈ 82 µM)
- Human plasma t90 [4]: 218 min
- Observations: stability / GNX production in human plasma ([4]; human): No GNX produced in rat,
- half-life ([4]; human): 24.8 h
- Rat plasma t90 [4]: 78 min
- Observations: stability / GNX production in rat plasma ([4]; rat): No GNX produced in rat,
- half-life ([4]; rat): 8.67 h
- Observations: stability / GNX production in dog plasma [5]: No GNX produced in rat,
- Dog plasma t90 [5]: 88 min
- half-life [5]: 9.72 h
- microsomal CLint [6]: 17 µL/min/mg
- half-life [6]: 1.35 h
- Dog Liver Microsomal Stability no NADPH, % remain 1 h [6]: 83%
- half-life [7]: 0.267 h
- microsomal CLint [7]: 86 µL/min/mg
- Human Liver Microsomal Stability no NADPH, % remain 1 h [7]: 8%
- SIF (% remain, 60 min) [8]: 74%
- half-life [8]: 3.32 h
- SGF (% remain, 60 min) [9]: 83%
- half-life [9]: 4.17 h
